{"source": "patent US6531288B1", "about": "“Methods to identify compounds that affect the expression level of the syntaxin-1 A encoding gene” (University of British Columbia, priority 1999, dated 2003)", "key": {"syntaxin-1A [1]": {"system": "syntaxin-1A", "test": "Syntaxin-1A expression in untransfected HEK293 cells treated with agents that alter intracellular calcium", "format": "cell-based", "conditions": "for syntaxin-1A mRNA levels: untransfected cells / absence of α1A transfection"}, "syntaxin-1A [2]": {"system": "syntaxin-1A", "test": "Syntaxin-1A expression in cerebellar granule cells (endogenous P/Q type channels)", "format": "cell-based", "protocol": "The foregoing results in HEK293 transfected cells were correlated with the endogenous P/Q type channels in neurons. Syntaxin-1A is basally expressed in cerebellar granule cells, but this is inhibited by ω Agatoxin IVA, which is known to inhibit calcium P/Q type channels specifically. […] Treatment of these cerebellar granule cells, which had been incubated in ω Agatoxin IVA with thapsigargin recovered the syntaxin-1A expression.\nSyntaxin-1A expression was inhibited by the same agents as had inhibited it in HEK293 cells including inhibitors of ryanodine —or IP3—induced calcium release from stores, of CaM kinase II/IV, and of PKA, or MAPKK."}, "syntaxin-1A [3]": {"system": "syntaxin-1A", "test": "Syntaxin-1A expression (mRNA/protein) in HEK293 cells transfected with the α1A P/Q type calcium channel", "format": "cell-based, human", "conditions": "for calcium dependent induction of syntaxin-1A: α1A transfected cells"}}, "note": "Starred links: 1 amine or outer side, 2 acyl side, 3 side chain; linkers in the order of their positions; H or OH if unused. Positions of bridges follow the written chain, without caps; N, C: chain ends. Non-standard residues stand in square brackets, D forms with d. Residues, ends and D or L forms follow the SMILES beside them. Chains are numbered I, II in the order given. Actinocin(9to1) = Cc1c2oc3c(C)ccc(C(=O)[*:1])c3nc-2c(C(=O)[*:2])c(N)c1=O; NMeV = CN[C@H](C(=O)O)C(C)C; Sar = CNCC(=O)O", "data": [{"compound": "C[C@H](CCC(=O)O)C[C@H](C)C[C@H](C)C(=O)/C=C(\\O)[C@H](C)C[C@H](C)C/C=C/[C@@H](C)[C@@H](O)[C@@H](C)[C@@H](O)C[C@@H]1CC[C@@](C)([C@H]2CC[C@@](C)([C@@H](C)O)O2)O1", "note": "[ionomycin]", "values": [{"measurement": "levels giving maximal activation of syntaxin-1A production", "setting": "syntaxin-1A [1]", "value": "50 to 200", "unit": "nM"}]}, {"compound": "C/C=C(/C)C(=O)O[C@H]1C(C)=C2[C@H]([C@@H]1OC(=O)CCCCCCC)[C@@](C)(OC(C)=O)C[C@H](OC(=O)CCC)[C@@]1(O)[C@H]2OC(=O)[C@@]1(C)O", "note": "[thapsigargin]", "values": [{"measurement": "syntaxin-1A expression", "setting": "syntaxin-1A [1]; untransfected cells", "value": "stimulated"}, {"measurement": "syntaxin-1A expression after P/Q block", "setting": "syntaxin-1A [2]; cerebellar granule cells which had been incubated in ω Agatoxin IVA", "value": "recovered"}]}, {"compound": "CC(=O)OCOC(=O)CN(CCOCCOCCN(CC(=O)OCOC(C)=O)CC(=O)OCOC(C)=O)CC(=O)OCOC(C)=O", "note": "[EGTA-AM]", "values": [{"measurement": "calcium dependent induction of syntaxin-1A", "setting": "syntaxin-1A [3]", "value": "blocked"}]}, {"compound": "Cc1c2oc3c(C)ccc(C(=O)N[C@@H]4C(=O)N[C@H](C(C)C)C(=O)N5CCC[C@H]5C(=O)N(C)CC(=O)N(C)[C@@H](C(C)C)C(=O)O[C@@H]4C)c3nc-2c(C(=O)N[C@@H]2C(=O)N[C@H](C(C)C)C(=O)N3CCC[C@H]3C(=O)N(C)CC(=O)N(C)[C@@H](C(C)C)C(=O)O[C@@H]2C)c(N)c1=O", "note": "[actinomycin D] (I: T[dV]P[Sar][NMeV] / II: T[dV]P[Sar][NMeV]; ester I:1-I:C, II:1-II:C; linker I:N-II:N via Actinocin(9to1))", "values": [{"measurement": "mRNA corresponding to syntaxin-1A", "setting": "syntaxin-1A [3]; HEK293 cells transfected with the α1A P/Q type calcium channel", "value": "inhibited"}]}, {"compound": "CC(=O)OCOC(=O)CN(CC(=O)OCOC(C)=O)c1ccccc1OCCOc1ccccc1N(CC(=O)OCOC(C)=O)CC(=O)OCOC(C)=O", "note": "[BAPTA-AM]", "values": [{"measurement": "calcium dependent induction of syntaxin-1A", "setting": "syntaxin-1A [3]", "value": "blocked"}]}, {"compound": "Cn1c(=O)c2c(ncn2C)n(C)c1=O", "note": "[caffeine]", "values": [{"measurement": "calcium release from ryanodine- and IP3-sensitive stores", "setting": "syntaxin-1A [1]; untransfected cells", "value": "activated"}, {"measurement": "syntaxin-1A mRNA levels", "setting": "syntaxin-1A [1]", "value": "stimulated"}]}, {"compound": "C[N+](C)(C)CCOC(N)=O", "note": "[carbachol]", "values": [{"measurement": "calcium release from ryanodine- and IP3-sensitive stores", "setting": "syntaxin-1A [1]; untransfected cells", "value": "activated"}, {"measurement": "syntaxin-1A mRNA levels", "setting": "syntaxin-1A [1]", "value": "stimulated"}]}, {"compound": "ω Agatoxin IVA", "values": [{"measurement": "syntaxin-1A expression (basal, calcium dependent)", "setting": "syntaxin-1A [2]; cerebellar granule cells", "value": "inhibited"}]}]}
